Patent EP4772510A2, “BENZAZEPINONE COMPOUND AND USE THEREOF” (HANGZHOU BIO-SINCERITY PHARMA-TECHCO., LTD., priority 2023, dated 2025)

How the values were obtained:
U937 cells = experiment: Inhibition of TNF-α-induced necroptosis of U937 cells (CCK-8 assay); format: cell-based, human; details: Homo sapiens, U-937, TNF-α 20 ng/mL + BV6 2 µM + Z-VAD-FMK 20 µM, 18 h
From the text: Example 56: Inhibition of TNF-α-Induced Necroptosis of U937 Cells by Compounds
• 1. Experimental reagents: RPMI-1640 culture medium, fetal bovine serum, penicillin-streptomycin, TNF-α (MCE, HY-P7058), BV6 (MCE, HY-16701), Z-VAD-FMK (MCE, HY-16658B), and CCK-8 (Dalian Meilun Biotech Co., Ltd., MA0218). • 2. Experimental instruments: medical low-temperature freezer (Thermo Fisher scientific, 902-ULTS), electrically heated thermostatic water bath (Shanghai Bluepard Instruments Co., Ltd., CD-420), low-speed centrifuge (ANHUI USTC Zonkia Scientific Instruments Co., Ltd, SC-3616), carbon dioxide incubator (Shanghai Bluepard Instruments Co., Ltd., BPN-150CH(UV)), inverted microscope (Olympus, CKX53), multi-functional microplate reader (Thermo Tecan, SPARK), class-II biosafety cabinet (AIRTECH, BSC-1304IIA2), and desktop cell counter (Thermo Fisher Scientific, Countess II). • 3. Cell culturing: U937 cells (human histiocytic lymphoma cells) were cultured in an RPMI-1640 culture solution containing 10% fetal bovine serum and 1% penicillin-streptomycin solution in a 5% CO2 incubator at 37 °C and a saturated humidity. The cell culture flask was vertically placed in the incubator. A T25 culture flask was used as an example, the culture solution in the flask was 6-8 mL, and culture medium changes and cell passaging were performed 3-4 times a week. • 4. […] The culture medium was taken out from the freezer and transferred to the water bath for pre-heating. An appropriate amount of culture medium was then taken for use. • (2) The cell suspension was transferred to a 15 mL sterile centrifuge tube and centrifuged at 850 rpm for 4 min to collect U937 cells. • (3) The supernatant was carefully discarded, and an appropriate amount of culture medium was added. The mixture was gently pipetted using a pipette to homogenize the cells and thus prepare a single-cell suspension, and the cells were counted. • (4) The cells were diluted to 4 × 10^5/mL and seeded into a 96-well plate at 90 µL/well, such that the cell density in the 96-well plate was 3.6 × 10 ^4 cells/well. The cells were incubated in a 5% CO 2 incubator at 37 °C and a saturated humidity for 6 h, followed by the addition of compounds. • 4.2 Dilution and addition of compounds: • (1) TNF-α was dissolved in PBS to obtain a 100 µg/mL stock solution and aliquoted; Z-VAD-FMK was dissolved in DMSO to obtain a 10 mM stock solution and aliquoted; BV6 was dissolved in DMSO to obtain a 10 mM stock solution and aliquoted; GSK2982772 was dissolved in DMSO to obtain a 10 mM stock solution and aliquoted. One aliquot of each stock solution was stored at -20 °C for immediate use, while the remaining aliquots were stored at - 80 °C and used within their shelf life. • (2) RPMI-1640 culture medium containing TNF-α, BV6, and Z-VAD-FMK was prepared (5 µL/per well), such that the final concentrations of TNF-α, BV6, and Z-VAD-FMK were 20 ng/mL, 2 µM, and 20 µM, respectively. • (3) Each target compound was three-fold diluted with a culture medium to 8 concentration gradients, with each concentration set in duplicate (5 µL/well). The final concentrations of each target compound were 1000.00/333.33/111.11/37.04/12.35/4.12/1.37/0.46 nM. • (4) The 96-well plate containing 90 µL of cell suspension was taken out from an incubator, and a positive control group, test compound groups, and a DMSO (5‰) control group were set. 5 µL of RPMI-1640 culture solution containing TNF-α, BV6, and Z-VAD-FMK and 5 µL of culture solution containing the test compound were added to the positive control group and the test compound groups. After compound addition, the mixtures were cultured for 18 h, followed by the CCK-8 assay. • (5) The 96-well plate was taken out, and the CCK-8 reagent was carefully added at 10 µL/well. The mixtures were incubated at 37 °C for 2-4 h, and the absorbance value was measured at a wavelength of 450 nm. • 5. Evaluation of inhibitory activity of compounds on TNF-α-induced necroptosis of U937 [formula] […]

HT-29 cells = experiment: Inhibition of TNF-α-induced necroptosis of HT-29 cells (SRB method); format: cell-based, human; details: Homo sapiens, HT-29, TNF-α 20 ng/mL + BV6 2 µM + Z-VAD-FMK 20 µM, 18 h
From the text: Example 57: Inhibition of TNF-α-Induced Necroptosis of HT-29 Cells by Compounds
• 1. Experimental reagents: McCOY's 5A culture medium, fetal bovine serum, penicillin-streptomycin, trypsin, PBS, TNF-α (MCE, HY-P7058), BV6 (MCE, HY-16701), Z-VAD-FMK (MCE, HY-16658B), SRB kit (Shanghai BestBio Biotechnology Co., Ltd., BB-4208-500T). • 2. Experimental instruments: medical low-temperature freezer (Thermo Fisher scientific, 902-ULTS), electrically heated thermostatic water bath (Shanghai Bluepard Instruments Co., Ltd., CD-420), low-speed centrifuge (ANHUI USTC Zonkia Scientific Instruments Co., Ltd, SC-3616), carbon dioxide incubator (Shanghai Bluepard Instruments Co., Ltd., BPN-150CH(UV)), inverted microscope (Olympus, CKX53), multi-functional microplate reader (Thermo Tecan, SPARK), class-II biosafety cabinet (AIRTECH, BSC-1304IIA2), and desktop cell counter (Thermo Fisher Scientific, Countess II). • 3. Cell culturing: HT-29 cells (human colon cancer cells) were cultured in a McCOY's 5A culture solution containing 10% fetal bovine serum and 1% penicillin-streptomycin solution in a 5% CO 2 at 37 °C and a saturated humidity, and culture medium changes and cell passaging were performed 3-4 times a week. • 4. […] The culture medium, trypsin, etc., were taken out from the freezer and transferred to the water bath for pre-heating. An appropriate amount of these substances was then taken for use. • (2) The old culture medium in the flask was aspirated using a sterile pipette and discarded, and the cells were washed 3 times with PBS. 1 mL of trypsin (25 cm^2 cell culture flask) was added into the flask, and the flask was gently shaken to allow the trypsin to cover all the cell surfaces. Digestion was performed in an incubator at 37 °C. After 2 min of digestion, the flask was placed under a microscope for observation. […] The mixture was gently pipetted using a pipette to homogenize the cells and thus prepare a single-cell suspension, and the cells were counted. • (5) The cells were diluted to 3 × 10^5/mL and seeded into a 96-well plate at 100 µL/well, such that there were 3 × 10^4 cells per well in the 96-well plate. The cells were incubated in a 5% CO2 incubator at 37 °C and a saturated humidity for 24 h, followed by the addition of compounds. • 4.2 Dilution and addition of compounds: • (1) TNF-α was dissolved in PBS to obtain a 100 µg/mL stock solution and aliquoted; Z-VAD-FMK was dissolved in DMSO to obtain a 10 mM stock solution and aliquoted; BV6 was dissolved in DMSO to obtain a 10 mM stock solution and aliquoted; GSK2982772 was dissolved in DMSO to obtain a 10 mM stock solution and aliquoted. One aliquot of each stock solution was stored at -20 °C for immediate use, while the remaining aliquots were stored at - 80 °C and used within their shelf life. • (2) McCOY's 5A culture solution containing TNF-α, BV6, and Z-VAD-FMK was prepared. For the positive control group and the test compound groups, the McCOY's 5A culture solution was added at 90 µL/well, and 10 µL of the culture medium containing the test compound was also added, thus making the final concentrations of TNF-α, BV6, and Z-VAD-FMK be 20 ng/mL, 2 µM, and 20 µM, respectively. For the DMSO (5‰) control group, 90 µL of the McCOY's 5A complete culture solution was added, and then 10 µL of DMSO was added, thus making the final concentration 5‰. • (3) Each target compound was three-fold diluted with a culture medium to 8 concentration gradients, with each concentration set in duplicate (10 µL/well). The final concentrations of each target compound were 1000.00/333.33/111.11/37.04/12.35/4.12/1.37/0.46 nM. • (4) The 96-well plate cultured for 24 h was taken out from the incubator, and the culture medium in the 96-well plate was carefully aspirated and discarded. A positive control group, test compound groups, and a DMSO (5‰) control group were set, and 10 µL of the corresponding compound was added to each group. […]

| Structure (SMILES) | EC50 (U937 cells) [nM] | EC50 (HT-29 cells) [nM] |
| --- | --- | --- |
| O=C(NC1CCc2cc(C#CC3CC3)cc3c2N(CC3)C1=O)c1nnc(Cc2ccccc2)[nH]1 (stereo not drawn) [Compound I-1, 5-benzyl-N-(9-(cyclopropylethynyl)-4-oxo-1,2,3,4,6,7-hexahydroazepino[3,2,1-hi]indol-3-yl)-4H-1,2,4-triazole-3-carboxamide] | > 200 | 100 to 200 |
| O=C(NC1CCc2cc(C#Cc3ccccn3)cc3c2N(CC3)C1=O)c1nnc(Cc2ccccc2)[nH]1 (stereo not drawn) [Compound I-2, 5-benzyl-N-(4-oxo-9-(pyridin-2-ylethynyl)-1,2,3,4,6,7-hexahydroazepino[3,2,1-hi]indol-3-yl)-4H-1,2,4-triazole-3-carboxamide] | 100 to 200 | 10 to 100 |
| O=C(NC1CCc2cc(C#Cc3cccnc3)cc3c2N(CC3)C1=O)c1nnc(Cc2ccccc2)[nH]1 (stereo not drawn) [Compound I-3, 5-benzyl-N-(4-oxo-9-(pyridin-3-ylethynyl)-1,2,3,4,6,7-hexahydroazepino[3,2,1-hi]indol-3-yl)-4H-1,2,4-triazole-3-carboxamide] | 100 to 200 | 10 to 100 |
| O=C(NC1CCc2cc(C#Cc3ccncc3)cc3c2N(CC3)C1=O)c1nnc(Cc2ccccc2)[nH]1 (stereo not drawn) [Compound I-4, 5-benzyl-N-(4-oxo-9-(pyridin-4-ylethynyl)-1,2,3,4,6,7-hexahydroazepino[3,2,1-hi]indol-3-yl)-4H-1,2,4-triazole-3-carboxamide] | 100 to 200 | 100 to 200 |
| Cn1cc(C#Cc2cc3c4c(c2)CCN4C(=O)C(NC(=O)c2nnc(Cc4ccccc4)[nH]2)CC3)cn1 (stereo not drawn) [Compound I-5, 5-benzyl-N-(9-((1-methyl-1H-pyrazol-4-yl)ethynyl)-4-oxo-1,2,3,4,6,7-hexahydroazepino[3,2,1-hi]indol-3-yl)-4H-1,2,4-triazole-3-carboxamide] | 10 to 100 | 100 to 200 |
| O=C(NC1CCc2cc(C#CC3CCOCC3)cc3c2N(CC3)C1=O)c1nnc(Cc2ccccc2)[nH]1 (stereo not drawn) [Compound I-6, 5-benzyl-N-(4-oxo-9-((tetrahydro-2H-pyran-4-yl)ethynyl)-1,2,3,4,6,7-hexahydroazepino[3,2,1-hi]indol-3-yl)-4H-1,2,4-triazole-3-carboxamide] | 10 to 100 | 10 to 100 |
| CC(C)(O)C#Cc1cc2c3c(c1)CCN3C(=O)C(NC(=O)c1nnc(Cc3ccccc3)[nH]1)CC2 (stereo not drawn) [Compound I-7, 5-benzyl-N-(9-(3-hydroxy-3-methylbut-1-yn-1-yl)-4-oxo-1,2,3,4,6,7-hexahydroazepino[3,2,1-hi]indol-3-yl)-4H-1,2,4-triazole-3-carboxamide] | 100 to 200 | > 200 |
| O=C(NC1CCc2cc(C#Cc3ccncc3)cc3c2N(CC3)C1=O)c1nnc(Cc2ccc(F)cc2)[nH]1 (stereo not drawn) [Compound I-8, 5-(4-fluorobenzyl)-N-(4-oxo-9-(pyridin-4-ylethynyl)-1,2,3,4,6,7-hexahydroazepino[3,2,1-hi]indol-3-yl)-4H-1,2,4-triazole-3-carboxamide] | > 200 | > 200 |
| O=C(NC1CCc2cc(C#Cc3ccncc3)cc3c2N(CC3)C1=O)c1nnc(Cc2ccc(Cl)cc2)[nH]1 (stereo not drawn) [Compound I-9, 5-(4-chlorobenzyl)-N-(4-oxo-9-(pyridin-4-ylethynyl)-1,2,3,4,6,7-hexahydroazepino[3,2,1-hi]indol-3-yl)-4H-1,2,4-triazole-3-carboxamide] | > 200 | > 200 |
| O=C(NC1CCc2cc(C#Cc3ccncc3)cc3c2N(CC3)C1=O)c1nnc(Cc2ccccc2Cl)[nH]1 (stereo not drawn) [Compound I-10, 5-(2-chlorobenzyl)-N-(4-oxo-9-(pyridin-4-ylethynyl)-1,2,3,4,6,7-hexahydroazepino[3,2,1-hi]indol-3-yl)-4H-1,2,4-triazole-3-carboxamide] | 100 to 200 | > 200 |
| O=C(NC1CCc2cc(C#Cc3ccncc3)cc3c2N(CC3)C1=O)c1nnc(Cc2ccccc2F)[nH]1 (stereo not drawn) [Compound I-11, 5-(2-fluorobenzyl)-N-(4-oxo-9-(pyridin-4-ylethynyl)-1,2,3,4,6,7-hexahydroazepino[3,2,1-hi]indol-3-yl)-4H-1,2,4-triazole-3-carboxamide] | 100 to 200 | 100 to 200 |
| O=C(NC1CCc2cc(C#Cc3ccncc3)cc3c2N(CC3)C1=O)c1nnc(Cc2c(F)cccc2F)[nH]1 (stereo not drawn) [Compound I-12, 5-(2,6-difluorobenzyl)-N-(4-oxo-9-(pyridin-4-ylethynyl)-1,2,3,4,6,7-hexahydroazepino[3,2,1-hi]indol-3-yl)-4H-1,2,4-triazole-3-carboxamide] | 10 to 100 | 10 to 100 |
